Several values for one entry are separate records, joined by “and”; a condition that tells them apart may be missing. Equal entries are not always repeated.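 48-hour exposure; five concentrations; linearly interpolated endpoints. GI50 = concentration required for 50% inhibition of growth.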 Activity calls are given as the source filed them. No stated cut-off is given here; in the data, active = GI50 up to about 1.1 µM and inactive = higher.
Key:
Assay in all cases: growth of human tumour cells (NCI), 48 h
[1] = system: TK-10
[2] = system: ACHN
[3] = system: MOLT-4
[4] = system: SK-MEL-28
[5] = system: UO-31
[6] = system: KM-20L2
[7] = system: SNB-19
[8] = system: HCT-15
[9] = system: SK-MEL-2
[10] = system: UACC-62
[11] = system: IGROV-1
[12] = system: HT-29
[13] = system: NCI-H226
[14] = system: KM12
[15] = system: SF-268
[16] = system: HOP-62
[17] = system: OVCAR-5
[18] = system: K562
[19] = system: A549
[20] = system: OVCAR-3
[21] = system: UACC-257
[22] = system: A498
[23] = system: SR
[24] = system: M19-MEL
[25] = system: SF-539
[26] = system: OVCAR-8
[27] = system: RXF 631
[28] = system: XF498
[29] = system: SN12C
[30] = system: NCI-H522
[31] = system: U-251
[32] = system: Malme-3M
[33] = system: SK-MEL-5
[34] = system: SNB-78
[35] = system: DMS-273
[36] = system: COLO 205
[37] = system: DLD-1
[38] = system: LXFL 529
[39] = system: DMS-114
[40] = system: SF-295
[41] = system: NCI-H23
[42] = system: HCT-116
[43] = system: NCI-H460
[44] = system: 786-0
[45] = system: SW-620
[46] = system: OVCAR-4
[47] = system: LOX IMVI
[48] = system: RPMI-8226
[49] = system: M14
[50] = system: SNB-75
[51] = system: HCC 2998
[52] = system: RXF 393
[53] = system: CAKI-1
[54] = system: EKVX
[55] = system: HL-60
[56] = system: CCRF-CEM
[57] = system: SK-OV-3
[58] = system: HOP-18
[59] = system: HOP-92

CCOC(=O)[C@H]1Nc2ccccc2C2c3ccccc3CC21 (some centres undefined)
GI50 [1]: > 100 µM (inactive)
GI50 [2]: > 100 µM (inactive)
GI50 [3]: 24.4 µM (inactive)
GI50 [4]: 34.2 µM (inactive)
GI50 [5]: 68.4 µM (inactive)
GI50 [6]: 39.4 µM (inactive)
GI50 [7]: > 100 µM (inactive)
GI50 [8]: 49 µM
GI50 [9]: > 100 µM (inactive)
GI50 [10]: 53.3 µM (inactive)
GI50 [11]: > 100 µM (inactive)
GI50 [12]: 19 µM (inactive)
GI50 [13]: > 100 µM (inactive)
GI50 [14]: 71 µM (inactive)
GI50 [15]: > 100 µM (inactive)
GI50 [16]: > 100 µM (inactive)
GI50 [17]: 31.7 µM (inactive)
GI50 [18]: 38.9 µM (inactive)
GI50 [19]: 78.3 µM (inactive)
GI50 [20]: 29.6 µM (inactive)
GI50 [21]: 22 µM (inactive)
GI50 [22]: 24.9 µM (inactive)
GI50 [23]: 27.4 µM (inactive)
GI50 [24]: 74.3 µM (inactive)
GI50 [25]: > 100 µM (inactive)
GI50 [26]: 48.5 µM (inactive)
GI50 [27]: > 100 µM (inactive)
GI50 [28]: > 100 µM (inactive)
GI50 [29]: 29.4 µM (inactive)
GI50 [30]: 16.4 µM (inactive)
GI50 [31]: > 100 µM (inactive)
GI50 [32]: > 100 µM (inactive)
GI50 [33]: 21.8 µM (inactive)
GI50 [34]: > 100 µM (inactive)
GI50 [35]: 74 µM (inactive)
GI50 [36]: 64.4 µM (inactive)
GI50 [37]: 51.4 µM (inactive)
GI50 [38]: 41.6 µM (inactive)
GI50 [39]: 88.1 µM (inactive)
GI50 [40]: 49 µM (inactive)
GI50 [41]: 79.6 µM (inactive)
GI50 [42]: 41.5 µM (inactive)
GI50 [43]: 38.6 µM (inactive)
GI50 [44]: > 100 µM (inactive)
GI50 [45]: 36.8 µM (inactive)
GI50 [46]: 38.2 µM (inactive)
GI50 [47]: > 100 µM (inactive)
GI50 [48]: 37.9 µM (inactive)
GI50 [49]: > 100 µM (inactive)
GI50 [50]: 39.5 µM (inactive)
GI50 [51]: 48.3 µM (inactive)
GI50 [52]: 3.3 µM (inactive)
GI50 [53]: > 100 µM (inactive)

Cc1cc(Cl)cc2c1NC(=O)C2(O)C(C(=O)c1ccccc1)c1ccccc1 (centres undefined)
GI50 [1]: > 100 µM (inactive) and 84.7 µM (inactive)
GI50 [3]: 16 µM (inactive)
GI50 [6]: 88.9 µM (inactive)
GI50 [7]: 77.6 µM (inactive)
GI50 [8]: 71.3 µM and 46.7 µM
GI50 [9]: 44.8 µM (inactive) and 32.3 µM (inactive)
GI50 [10]: 17.3 µM (inactive)
GI50 [11]: 26.2 µM (inactive)
GI50 [12]: 35.2 µM (inactive) and 39.8 µM (inactive)
GI50 [13]: 36.4 µM (inactive) and 27.3 µM (inactive)
GI50 [14]: 47.6 µM (inactive) and 60.4 µM (inactive)
GI50 [16]: 82 µM (inactive) and 47.3 µM (inactive)
GI50 [17]: > 100 µM (inactive)
GI50 [18]: 33.5 µM (inactive)
GI50 [22]: 27.7 µM (inactive)
GI50 [54]: 49.8 µM (inactive) and 67.8 µM (inactive)
GI50 [24]: 3.4 µM (inactive)
GI50 [25]: 21 µM (inactive)
GI50 [55]: 20.1 µM (inactive)
GI50 [56]: 26.7 µM (inactive)
GI50 [27]: 37.8 µM (inactive) and 70.1 µM (inactive)
GI50 [28]: 36.4 µM (inactive) and 28.7 µM (inactive)
GI50 [30]: 36.5 µM (inactive)
GI50 [33]: 21.2 µM (inactive)
GI50 [34]: 41.8 µM (inactive) and 56.6 µM (inactive)
GI50 [35]: 55.8 µM (inactive)
GI50 [37]: 53.8 µM (inactive) and 42.3 µM (inactive)
GI50 [39]: 22.9 µM (inactive) and 25.6 µM (inactive)
GI50 [40]: 45.7 µM (inactive) and 67.8 µM (inactive)
GI50 [41]: 52.5 µM (inactive) and 38.6 µM (inactive)
GI50 [57]: 56.6 µM (inactive)
GI50 [42]: 23.4 µM (inactive)
GI50 [45]: 44.7 µM (inactive) and 76 µM (inactive)
GI50 [46]: 20.4 µM (inactive) and 35.5 µM (inactive)
GI50 [47]: 19.3 µM (inactive) and 33 µM (inactive)
GI50 [48]: 17.4 µM (inactive) and 22.9 µM (inactive)
GI50 [50]: 24.7 µM (inactive) and 21.7 µM (inactive)
GI50 [51]: 23.9 µM (inactive) and 29.9 µM (inactive)

COC1C(CN[N+](=O)CC2OC3OC(C)(C)OC3C2OC)OC2OC(C)(C)OC21 (centres undefined)
GI50 [1]: > 100 µM (inactive)
GI50 [2]: > 100 µM (inactive)
GI50 [3]: > 100 µM (inactive)
GI50 [4]: > 100 µM (inactive)
GI50 [5]: > 100 µM (inactive)
GI50 [58]: > 100 µM (inactive)
GI50 [7]: > 100 µM (inactive)
GI50 [8]: > 100 µM
GI50 [9]: > 100 µM (inactive)
GI50 [10]: > 100 µM (inactive)
GI50 [11]: > 100 µM (inactive)
GI50 [12]: > 100 µM (inactive)
GI50 [59]: > 100 µM (inactive)
GI50 [13]: > 100 µM (inactive)
GI50 [14]: > 100 µM (inactive)
GI50 [15]: > 100 µM (inactive)
GI50 [16]: > 100 µM (inactive)
GI50 [17]: > 100 µM (inactive)
GI50 [18]: > 10 µM (inactive)
GI50 [19]: > 100 µM (inactive)
GI50 [20]: > 100 µM (inactive)
GI50 [21]: > 100 µM (inactive)
GI50 [22]: > 100 µM (inactive)
GI50 [54]: > 100 µM (inactive)
GI50 [24]: > 100 µM (inactive)
GI50 [25]: > 100 µM (inactive)
GI50 [26]: > 100 µM (inactive)
GI50 [55]: > 100 µM (inactive)
GI50 [56]: > 100 µM (inactive)
GI50 [27]: > 100 µM (inactive)
GI50 [29]: > 100 µM (inactive)
GI50 [31]: > 100 µM (inactive)
GI50 [32]: > 100 µM (inactive)
GI50 [33]: > 100 µM (inactive)
GI50 [34]: > 100 µM (inactive)
GI50 [35]: > 100 µM (inactive)
GI50 [36]: > 100 µM (inactive)
GI50 [37]: > 100 µM (inactive)
GI50 [39]: > 100 µM (inactive)
GI50 [40]: > 100 µM (inactive)
GI50 [41]: > 100 µM (inactive)
GI50 [57]: > 100 µM (inactive)
GI50 [42]: > 100 µM (inactive)
GI50 [43]: > 100 µM (inactive)
GI50 [44]: > 100 µM (inactive)
GI50 [45]: > 100 µM (inactive)
GI50 [46]: > 100 µM (inactive)
GI50 [47]: > 100 µM (inactive)
GI50 [49]: > 100 µM (inactive)
GI50 [50]: > 100 µM (inactive)
GI50 [51]: > 100 µM (inactive)
GI50 [52]: > 100 µM (inactive)
GI50 [53]: > 100 µM (inactive)

— ChEMBL document CHEMBL1201862, “PubChem BioAssay data set” (2004)
